The text below walks through data of US20260226077A1, “TYPE II TOPOISOMERASE INHIBITORS AND METHODS OF MAKING AND USING THEREOF” (Ohio State Innovation Foundation, priority 2023, published 2026).

Molecules are shown by their SMILES. In brackets after ≈: the same amount, converted by molar mass.

Data set [1] is described as follows: Human microsomal stability. The following applies: microsomes, read-out: Human microsom. t1/2. Type of data set: in vitro ADME.
For data set [2], the system named is M121K. Description: MIC against M121K mutant. Type of data set: cell-based.
The nature of data set [3]: in vitro. The following applies: rat, plasma.
Data set [4] can be described thus: in vitro. The following applies: mouse, hepatocytes.
In data set [5] the test system is Moraxella catarrhalis. Description: MIC50/90 against Moraxella catarrhalis. Type of data set: cell-based. The following applies: n = 10.
The conditions of data set [6]: all channels.
Test in data set [7]: not given
This is another data set of the same source.

Test in data set [8]: not given
The source holds these as a separate data set.

For data set [9], the system named is D83N. The data set is described as follows: MIC against D83N mutant. Type of data set: cell-based.
The target in data set [10] is hERG (Homo sapiens, UniProt Q12809). Description: hERG inhibition. Type of data set: cell-based. (In general: The hERG channel carries a current that helps repolarise heart muscle cells.)
Data set [11] can be described thus: Monkey microsomal stability. Type of data set: in vitro ADME. The following applies: microsomes, read-out: Monkey microsom. t1/2.
The subject of data set [12] is Mycobacterium abscessus. Description: MIC50/90 against Mycobacterium abscessus. Type of data set: cell-based. The following applies: Mycobacteroides abscessus; n = 10.
Data set [13] deals with Mycobacterium chimaera intracellulare group. Description: MIC50 against Mycobacterium chimaera intracellulare group. Type of data set: cell-based. The following applies: n = 6.
In data set [14] the test system is Burkholderia mallei. Description: microbe, parasite or virus in culture. Type of data set: cell-based.

hERG, sequence (Q12809 whole entry): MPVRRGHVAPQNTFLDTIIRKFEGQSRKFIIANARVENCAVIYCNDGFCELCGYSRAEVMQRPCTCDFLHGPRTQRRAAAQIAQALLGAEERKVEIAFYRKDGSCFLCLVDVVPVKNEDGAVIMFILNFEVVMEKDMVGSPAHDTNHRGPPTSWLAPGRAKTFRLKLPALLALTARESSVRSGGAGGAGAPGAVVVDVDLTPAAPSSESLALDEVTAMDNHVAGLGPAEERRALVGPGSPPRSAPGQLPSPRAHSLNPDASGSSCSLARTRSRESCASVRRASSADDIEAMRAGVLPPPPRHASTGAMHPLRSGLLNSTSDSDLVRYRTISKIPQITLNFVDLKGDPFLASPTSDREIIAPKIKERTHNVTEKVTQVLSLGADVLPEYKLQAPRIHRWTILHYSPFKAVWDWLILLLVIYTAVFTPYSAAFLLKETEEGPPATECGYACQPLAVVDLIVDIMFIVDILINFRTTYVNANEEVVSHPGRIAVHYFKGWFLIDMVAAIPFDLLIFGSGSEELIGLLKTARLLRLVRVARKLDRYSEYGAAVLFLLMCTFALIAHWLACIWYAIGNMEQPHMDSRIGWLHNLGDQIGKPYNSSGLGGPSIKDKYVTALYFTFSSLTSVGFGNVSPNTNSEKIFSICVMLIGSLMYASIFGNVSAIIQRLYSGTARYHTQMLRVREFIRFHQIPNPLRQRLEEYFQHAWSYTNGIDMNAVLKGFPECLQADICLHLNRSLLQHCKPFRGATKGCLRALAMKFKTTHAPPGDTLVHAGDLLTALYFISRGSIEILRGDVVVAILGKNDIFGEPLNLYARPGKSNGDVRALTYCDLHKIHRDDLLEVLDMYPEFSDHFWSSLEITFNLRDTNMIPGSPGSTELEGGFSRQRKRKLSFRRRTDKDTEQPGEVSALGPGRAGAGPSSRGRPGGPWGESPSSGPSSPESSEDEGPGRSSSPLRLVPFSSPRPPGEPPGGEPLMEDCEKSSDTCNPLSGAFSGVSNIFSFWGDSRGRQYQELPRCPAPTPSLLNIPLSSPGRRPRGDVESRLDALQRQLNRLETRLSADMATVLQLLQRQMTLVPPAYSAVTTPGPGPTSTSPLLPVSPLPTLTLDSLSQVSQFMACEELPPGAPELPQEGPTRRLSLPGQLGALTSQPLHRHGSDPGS

As to `COc1ccc2ncc(F)c(C[C@H](O)[C@H]3OC[C@H](NCc4cnc5c(n4)NC(=O)CO5)CO3)c2n1` [Compound 284, 6-(((2-((S)-2-(3-fluoro-6-methoxy-1,5-naphthyridin-4-yl)-1-hydroxyethyl)-trans-1,3-dioxan-5-yl)amino)methyl)-2H-pyrazino[2,3-b][1,4]oxazin-3(4H)-one], the “Safety44 screen at 100 μM” value was “None >50%”. The half-life in data set [1] is > 2 h. For the same molecule, the MIC (commonly the lowest concentration that inhibits growth of the organism) in data set [2] lay in the range of 1 to 4 µg/mL (≈ 2.06 to 8.22 µM). In [3], the half-life was > 2 h. In addition, in [4], the half-life was > 4 h. Further, in data set [5], the MIC50 (usually the lowest concentration that inhibits either 50% of growth or 50% of the strains tested, depending on the study) was determined as 0.12 µg/mL (≈ 0.247 µM) and the MIC90 is 0.25 µg/mL (≈ 0.514 µM). In addition, in data set [6], the “Comprehensive in vitro proarrhythmia assay at 100 μM, inhibition” value is “All <25%”. The “Kinetic solubility at pH 7.4-7.5 (μM)” value in data set [7] is given as > 200 μM. Moreover, the “Human plasma protein binding (% unbound)” value in data set [8] is listed as 10 % unbound. This molecule registered an MIC in data set [9] of 1 to 2 µg/mL (≈ 2.06 to 4.11 µM). The IC50 (in general, the concentration that inhibits the measured activity by half) in [10] was found to be 104 µM. For the same molecule, in data set [11], the half-life is > 2 h. Moreover, in data set [12], the MIC50 was > 64 µg/mL and the MIC90 is > 64 µg/mL. The same molecule displayed an MIC50 in [13] of 64 µg/mL (≈ 132 µM). Further, the MIC90 in data set [14] (Burkholderia mallei, read-out: Burkholderia mallei MIC90 (μg/mL)) is > 64 µg/mL. Further, the “Burkholderia mallei MIC50” value in data set [14] (n = 10) turned out to be 16 µg/mL.
